Measured values reported in patent publication US10208059B2, “Heterocyclic modulators of HIF activity for treatment of disease” (Board of Regents, University of Texas System, priority 2012, dated 2019).
“Also recorded” adds a separate entry of the source.

Experiments:
293T-HRE-GFP-luc cells = test: Cell-based reporter assay for IC50 determinations; settings: hypoxia 6 hrs (1% O2), luminescence, read-out: IC50 Classification
In short: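 Cells carrying an HRE-driven GFP-luciferase reporter, seeded at 12,000/well and held overnight, then given 1:3 serial compound dilutions (DMSO, further diluted 1:50 in medium). After 30 min in normoxia, plates held 6 h in hypoxia (1% O2, 37 °C); luciferase luminescence read, IC50 by four-parameter logistic fit.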

NB-1 cells = test: Neuroblastoma cellular assay, cell numbers; format: cell-based; settings: various concentrations
Description: (§1) NB-1, Gli56, and D423 cell lines are deleted for ENO-1 (GLI56 and D423) or PGD, which renders them with reduced glycolytic capacity (Muller, F. et al., Nature, 2012, 488, 337-42).

D423 cells = test: Glioblastoma cellular assay, cell numbers; format: cell-based; settings: various concentrations
Description: as §1

Gli56 cells = test: Glioblastoma cellular assay, cell numbers; format: cell-based; settings: various concentrations
Description: as §1

H460 xenografts = test: H460 non-small cell lung cancer xenograft model; format: in vivo, mice
Description: H460 cells were implanted subcutaneously in CD-1 nude mice and treated with 150 mpk qdx14 PO of the compound of Example 2 delivered by oral gavage for 14 days. Animals were randomized into study groups and the study initiated when the average tumor volume was 400 mm^3. During treatment, tumor volume was measured three times per week to determine tumor growth over the course of the study (FIG. 6). Nine tumor bearing mice were included in each group. On day 15, 3 hours prior to take down, hypoxyprobe (Hypoxyprobe, Inc. cat # HP3) was injected into mice. Tumor sections were stained (dark areas) for the level of hypoxia utilizing an anti-hypoxyprobe antibody and standard IHC methods (FIG. 7). The same tumors were stained for the expression of HIF regulated gene carbonic anhydrase IX (CA9) using standard IHC methods (FIG. 8).

TMD8 cells = test: Diffuse large B-cell lymphoma (DLBCL) assay, viable cells; format: cell-based; settings: varying concentrations, 7 days, Guava ViaCount
Description: Diffuse Large B-Cell Lymphoma (DLBCL) Assay
Equal number of TMD8 cells were plated and treated with varying concentrations of the compound of Example 80 for 7 days. Percent of viable cells was determined using Guava ViaCount reagents (EMD Millipore cat #4000-0040) that contains proprietary dyes that enable the determination of the number of live and dead cells in a sample (FIG. 1).

OCI-AML3 cells = test: Acute myeloid leukemia cell viability; format: cell-based; settings: various concentrations, 2 days, normalized to DMSO control
Description: (§2) The OCI-AML3 cell line was treated with various concentrations of compound for 2 days and the percent of viable cells normalized to control cells treated with DMSO (FIG. 9). OCI-AML3 cells constitutively expressing luciferase were tail vein injected in NSG nude mice. 17 days after cell injection, luciferin was injected into animals and luciferase signal was measured using an IVIS imaging system to determine tumor burden and for randomization of subjects into study groups. On day 18, animals began receiving daily oral doses of vehicle or 10 mpk of the compound of Example 80 which continued throughout the study. On day 28, imaging was performed again to determine tumor burden (FIG. 10).

[1] = system: OCI-AML3 models in NSG mice; test: Human leukemia model, OCI-AML3 in NSG mice; format: in vivo; settings: 10 mg/kg daily oral
Description: as §2

NB-1 xenografts = test: NB-1 xenograft model; format: in vivo; settings: daily oral 10 mg/kg (b1183 says 40 mpk), CD-1 nude mice
Description: To establish activity and provide in vivo proof of concept, NB-1 cells were implanted into CD-1 nude mice and treated with 40 mpk of the compound of Example 80 po or vehicle daily when tumors reached 400-500 mm^3. Tumor size was measured 3×/week using caliper measurements (FIG. 5).

Compound	IC50 (293T-HRE-GFP-luc cells)	cell death in NB-1 cells (NB-1 cells)	number of viable NB-1 cells (NB-1 cells)	number of viable D423 cells (D423 cells)	cell death in Gli56 cells (Gli56 cells)	number of viable Gli56 cells (Gli56 cells)	tumor growth of H460 xenografts (H460 xenografts; 150 mg/kg daily oral for 14 days, CD-1 nude mice)	level of HIF regulated gene carbonic anhydrase IX (CAIX/CA9) in H460 xenografts (IHC) (H460 xenografts; 150 mg/kg daily oral, day 15)	level of hypoxia in H460 xenografts (hypoxyprobe IHC) (H460 xenografts; 150 mg/kg daily oral, day 15)	number/percent of viable TMD8 cells (TMD8 cells)	number of viable OCI-AML3 cells (OCI-AML3 cells)	disease burden (tumor burden) by IVIS imaging [1]	survival ([1]; relative to vehicle)	tumor growth of NB-1 xenografts (NB-1 xenografts)
Cc1nc(-c2nc(-c3ccc(OC(F)(F)F)cc3)no2)nn1Cc1ccnc(N2CCN(C)CC2)c1 [Example 2, 5-(5-Methyl-1-((2-(4-methylpiperazin-1-yl)pyridin-4-yl)methyl)-1H-1,2,4-triazol-3-yl)-3-(4-(trifluoromethoxy)phenyl)-1,2,4-oxadiazole]	< 100 nM	readily apparent	significantly reduced; also recorded: reduced number of viable cells	significantly reduced; also recorded: reduced number of viable cells	readily apparent	significantly reduced	inhibited the growth; also recorded: reduces the tumor growth	elimination of hypoxia and CA9 protein expression; also recorded: reduce the level of CAIX	elimination of hypoxia; also recorded: reduce the level of hypoxia					
Cc1nc(-c2nc(-c3ccc(OC(F)(F)F)cc3)no2)nn1Cc1cccc(N2CCC(S(C)(=O)=O)CC2)c1 [Example 80, 4-Methanesulfonyl-1-{3-[(5-methyl-3-{3-[4-(trifluoromethoxy)phenyl]-1,2,4-oxadiazol-5-yl}-1H-1,2,4-triazol-1-yl)methyl]phenyl}piperidine]	< 100 nM	readily apparent	significantly reduced; also recorded: reduced number of viable cells	significantly reduced; also recorded: reduced number of viable cells	readily apparent	significantly reduced; also recorded: reduced number of viable cells				respond robustly; also recorded: reduced number of viable cells	reduced number of viable cells	reduces disease burden	significantly increased their survival; also recorded: extends survival	reduces the tumor growth
